In publication PMC8300687, “A Fine-Tuned Lipophilicity/Hydrophilicity Ratio Governs Antibacterial Potency and Selectivity of Bifurcated Halogen Bond-Forming NBTIs” (Antibiotics, 2021):
Values after ≈ are worked out from the molar mass of the structure shown. Like-named read-outs stand apart in the source and are kept apart here.

Columns and labels:
[1] = Equilibrium solubility at pH 6.8; conditions: 37 °C, pH 6.8, aqueous buffer, thermodynamic from solid
Description: (§1) Prior to the measurements of solubility and permeability isocratic HPLC methods were developed. […] The individual method parameters for each compound are given in the Supplementary Materials Table S1.
The vials were then placed in a homogenizer (Next Advance Bullet Blender, Troy, NY, USA) for 5 min ad speed setting “2” after which they were kept in a thermostated shaker (Tehtnica HeatMix, Domel, Slovenia) at 37 °C and 1200 RPM for 24 h. […] Twenty µL of these solutions were injected for the HPLC analysis by the described methods (Supplementary Materials Table S1). External standards for calibration were made in a mobile phase with 5% acetonitrile in a range of 30–90 mg/L and injected at 20 µL injection volumes.

E. coli (ATCC 25922) = test: MIC broth microdilution, E. coli ATCC 25922; assay type: cell-based; conditions: Escherichia coli, ATCC25922; read-out: MIC E. coli (ATCC 25922)
Description: (§2) Antimicrobial testing was carried out by the broth microdilution method in 96-well plate format following the Clinical and Laboratory Standards Institute (CLSI) guidelines and European Committee on Antimicrobial Susceptibility Testing (EUCAST) recommendations. Bacterial suspension of specific bacterial strain equivalent to 0.5 McFarland turbidity standard was diluted with cation-adjusted Mueller Hinton broth with TES (Thermo Fisher Diagnostic, Landsmeer, The Netherlands), to obtain a final inoculum of 10^5 CFU/mL. Compounds dissolved in DMSO and inoculum were mixed together and incubated for 18–20 h at 35 °C. Suspensions of Mycobacterium sp. were prepared into a tube of Middelbrook 7H9 broth supplemented with 5% OADC (Thermo Scientific, Trek Diagnostic Systems, West Sussex, UK) and incubated for at least 10 days. After incubation the minimal inhibitory concentration (MIC) values were determined by visual inspection as the lowest dilution of compounds showing no turbidity. Tetracycline was used as a positive control on every assay plate.

E. coli N43 (CGSC# 5583) = test: MIC broth microdilution, E. coli N43; assay type: cell-based; conditions: Escherichia coli, read-out: MIC E. coli N43 (CGSC# 5583)
Description: as §2

S. aureus DNA gyrase = biological target: T1, S. aureus DNA gyrase (Staphylococcus aureus, UniProt P20831); conditions: cited from earlier work
T1 construct: purchased Inspiralis (Norwich, UK)
T1 sequence (P20831 whole entry): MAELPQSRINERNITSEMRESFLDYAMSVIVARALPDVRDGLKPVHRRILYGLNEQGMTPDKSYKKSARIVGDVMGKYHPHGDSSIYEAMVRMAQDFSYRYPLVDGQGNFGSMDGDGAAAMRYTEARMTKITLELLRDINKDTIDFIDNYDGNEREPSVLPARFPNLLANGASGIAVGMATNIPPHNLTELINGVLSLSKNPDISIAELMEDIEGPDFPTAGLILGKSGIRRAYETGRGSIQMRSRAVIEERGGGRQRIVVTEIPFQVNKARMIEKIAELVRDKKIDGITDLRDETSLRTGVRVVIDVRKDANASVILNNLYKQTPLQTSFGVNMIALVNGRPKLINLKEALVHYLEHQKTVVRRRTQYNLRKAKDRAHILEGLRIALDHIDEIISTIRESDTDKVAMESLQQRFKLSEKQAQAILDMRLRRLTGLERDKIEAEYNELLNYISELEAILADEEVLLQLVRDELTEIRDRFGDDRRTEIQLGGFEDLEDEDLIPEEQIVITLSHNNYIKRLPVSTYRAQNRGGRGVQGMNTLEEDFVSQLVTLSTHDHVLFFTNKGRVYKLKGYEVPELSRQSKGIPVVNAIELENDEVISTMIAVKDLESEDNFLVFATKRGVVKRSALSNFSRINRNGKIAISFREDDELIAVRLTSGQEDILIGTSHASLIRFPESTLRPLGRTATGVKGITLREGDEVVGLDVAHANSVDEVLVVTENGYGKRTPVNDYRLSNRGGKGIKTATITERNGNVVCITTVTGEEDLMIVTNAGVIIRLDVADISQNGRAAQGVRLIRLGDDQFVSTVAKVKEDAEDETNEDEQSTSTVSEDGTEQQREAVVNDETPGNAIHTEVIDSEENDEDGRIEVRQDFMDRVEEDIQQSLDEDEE
T1 sequence (P0A0K8 whole entry partner): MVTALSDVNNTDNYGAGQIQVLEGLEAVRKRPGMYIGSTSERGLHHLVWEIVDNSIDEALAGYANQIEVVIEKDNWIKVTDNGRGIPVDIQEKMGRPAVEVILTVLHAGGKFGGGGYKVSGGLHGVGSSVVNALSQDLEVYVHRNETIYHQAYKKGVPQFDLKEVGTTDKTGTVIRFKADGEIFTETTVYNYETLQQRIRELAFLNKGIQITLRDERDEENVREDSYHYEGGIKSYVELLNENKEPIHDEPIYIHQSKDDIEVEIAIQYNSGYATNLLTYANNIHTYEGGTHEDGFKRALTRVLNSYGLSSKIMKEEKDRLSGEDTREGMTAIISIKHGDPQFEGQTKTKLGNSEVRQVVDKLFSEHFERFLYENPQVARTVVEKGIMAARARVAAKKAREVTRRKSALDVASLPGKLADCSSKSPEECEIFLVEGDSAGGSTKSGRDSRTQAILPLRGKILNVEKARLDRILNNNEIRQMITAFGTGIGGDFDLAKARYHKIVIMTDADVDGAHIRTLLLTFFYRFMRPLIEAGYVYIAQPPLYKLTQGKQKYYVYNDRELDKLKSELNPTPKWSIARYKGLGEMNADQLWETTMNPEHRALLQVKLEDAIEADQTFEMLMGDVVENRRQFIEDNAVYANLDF

S. aureus = system: S. aureus; design: method as in PMID 31140866; conditions: Figure 2, previous study ref 18; cited from earlier work
E. coli = system: E. coli; design: method as in PMID 31140866; conditions: Figure 2, previous study ref 18; cited from earlier work
in vitro = conditions: PAMPA
Description: as §1
A 96-well precoated three-layer PAMPA plates (Corning® Gentest™ Pre-coated PAMPA Plate System, Corning, NY, USA) were used according to the manufacturer’s instructions and as described previously with 300 µL of the donor solutions in the bottom compartment and 200 µL of the acceptor solution (pH 7.4 PBS) in the upper compartment at 37 °C and a 4-h incubation time. The initial and end donor solutions were injected at a 5 µL injection volume. The initial donor solutions were also diluted 100-fold and injected at a 100 µL injection volume to serve as external references for the end acceptor solutions which were injected at the same injection volume. The permeability calculations were made with a manufacturer-provided Excel spreadsheet directly from the measured peak areas accounting for the relevant dilutions and injection volumes.

Work on Cn1c(=O)c2[nH]cnc2n(C)c1=O [Theophylli n, theophylline, reference compound] yielded a solubility thermodynamic at 24 h [1] of 8220 µg/mL (≈ 45600 µM).
For O=c1ccc2ncc(=O)n3c2n1C[C@H]3CN1CCC(NCc2cc3c(cn2)OCCC3)CC1 [Gepotidacin, reference compound], the MIC (E. coli (ATCC 25922)) was 1 µg/mL (≈ 2.23 µM) and the MIC (E. coli N43 (CGSC# 5583)) was 0.016 µg/mL (≈ 0.0357 µM).
For COc1ccc2ncc(F)c(C[C@H](O)[C@@H]3CC[C@@H](NCc4cc5c(nn4)OCCS5)CO3)c2n1 [ACT3870424], the IC50 (S. aureus DNA gyrase; Table S2, supplement ref 4) is listed as 125 nM.
In the case of COc1ccc2nccc(NC(=O)C3CCC(NCc4cnn(-c5ccccc5)c4)CC3)c2c1 (stereo not shown) [Compound 131], the IC50 (S. aureus DNA gyrase; Table S2, supplement ref 1) is given as 830 nM, the “MIC S. aureus” value (S. aureus) is given as 2 µg/mL (≈ 4.39 µM) and the “MIC E. coli” value (E. coli) is given as 64 µg/mL (≈ 140 µM).
Compound COCCc1ccc(OCC(O)CNC(C)C)cc1 (stereo not shown) [Metoprolol, metoprolol, reference compound] has a solubility thermodynamic at 24 h [1] of 30400 µg/mL (≈ 114000 µM), a Papp at 4 h (in vitro) of over 2.7 ×10⁻⁶ cm/s and a Papp at 4 h (in vitro; pH 7.4) of 4.2 ×10⁻⁶ cm/s.
For C[C@H]1O[C@@H](O[C@H]2[C@@H](O)C[C@H](O[C@H]3[C@@H](O)C[C@H](O[C@H]4CC[C@@]5(C)[C@H](CC[C@@H]6[C@@H]5C[C@@H](O)[C@]5(C)[C@@H](C7=CC(=O)OC7)CC[C@]65O)C4)O[C@@H]3C)O[C@@H]2C)C[C@H](O)[C@@H]1O [Di goxin, digoxin, reference compound], the solubility thermodynamic at 24 h [1] was 52 µg/mL (≈ 66.6 µM), the “PAMPA permeability classification [low/high]” value (in vitro) was “int erm ediat e” and the Papp (in vitro; pH 7.4) was 0.58 ×10⁻⁶ cm/s.
